Reference: ChEMBL document CHEMBL1201861, “Genomics of Drug Sensitity in Cancer screening data, Wellcome Trust Sanger Institute”

How the values were obtained:
Assay in all cases: cells
EKVX = format: functional, cell-based, Homo sapiens; conditions: Homo sapiens, EKVX;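 also: growth inhibition of human EKVX cells, read out with a cell viability assay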
Description: SANGER: Inhibition of human EKVX cell growth in a cell viability assay.

ATN-1 = format: functional, cell-based; conditions: Homo sapiens;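 also: growth inhibition of human ATN-1 cells, read out with a cell viability assay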
Description: SANGER: Inhibition of human ATN-1 cell growth in a cell viability assay.

NKM-1 = format: functional, cell-based; conditions: Homo sapiens;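 also: growth inhibition of NKM-1 cells, read out with a cell viability assay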
Description: SANGER: Inhibition of human NKM-1 cell growth in a cell viability assay.

LB1047-RCC = format: functional, cell-based, Homo sapiens; conditions: Homo sapiens, LB1047-RCC;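 also: inhibition of cell growth, determined with a cell viability assay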
Description: SANGER: Inhibition of human LB1047-RCC cell growth in a cell viability assay.

RKO = format: functional, cell-based, Homo sapiens; conditions: Homo sapiens, RKO;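 also: growth inhibition of human RKO cells, read out with a cell viability assay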
KG-1 = format: functional, cell-based; conditions: Homo sapiens;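 also: growth inhibition of KG-1 cells, read out by a cell viability assay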
ES7 = format: functional, cell-based, Homo sapiens; conditions: Homo sapiens, ES7;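 also: growth inhibition of cultured human ES7 cells, read out as cell viability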
Description: SANGER: Inhibition of human ES7 cell growth in a cell viability assay.

Lu-65 = format: functional, cell-based; conditions: Homo sapiens;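 also: growth inhibition of Lu-65 cancer cells, read out by a cell viability assay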
Description: SANGER: Inhibition of human LU-65 cell growth in a cell viability assay.

CCRF-CEM = format: functional, cell-based; conditions: Homo sapiens;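 also: inhibition of CCRF-CEM cell growth, measured by a cell viability assay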
Description: SANGER: Inhibition of human CCRF-CEM cell growth in a cell viability assay.

NCI-H82 = format: functional, cell-based; conditions: Homo sapiens;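 also: growth inhibition of NCI-H82 cells, measured with a cell viability readout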
Description: SANGER: Inhibition of human NCI-H82 cell growth in a cell viability assay.

no-11 = format: functional, cell-based, Homo sapiens; conditions: Homo sapiens;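 also: growth inhibition of human NO-11 cells, read out with a cell viability assay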
Description: SANGER: Inhibition of human no-11 cell growth in a cell viability assay.

EW-24 = format: functional, cell-based; conditions: Homo sapiens;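 also: human EW-24 cancer cell line, growth inhibition read out via a cell viability assay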
Description: SANGER: Inhibition of human EW-24 cell growth in a cell viability assay.

SW872 = format: functional, cell-based, Homo sapiens; conditions: Homo sapiens, SW872;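 also: growth inhibition of SW872 cells, read out by a viability assay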
Description: SANGER: Inhibition of human SW872 cell growth in a cell viability assay.

BE-13 = format: functional, cell-based; conditions: Homo sapiens;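 also: growth inhibition of human BE-13 cells, measured with a cell viability assay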
Description: SANGER: Inhibition of human BE-13 cell growth in a cell viability assay.

LAN-6 = format: functional, cell-based, Homo sapiens; conditions: Homo sapiens, LAN-6;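 also: growth inhibition of LAN-6 cells, determined with a cell viability assay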
Description: SANGER: Inhibition of human LAN-6 cell growth in a cell viability assay.

NCI-H1395 = format: functional, cell-based, Homo sapiens; conditions: Homo sapiens, NCI-H1395;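 also: cell viability assay read-out quantifying reduced proliferation of human NCI-H1395 cells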
Description: SANGER: Inhibition of human NCI-H1395 cell growth in a cell viability assay.

GCIY = format: functional, cell-based, Homo sapiens; conditions: Homo sapiens, GCIY;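 also: growth inhibition of the human GCIY cell line, read out by a cell viability assay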
Description: SANGER: Inhibition of human GCIY cell growth in a cell viability assay.

RH-1 = format: functional, cell-based, Homo sapiens; conditions: Homo sapiens, RH-1;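 also: growth inhibition of human RH-1 cells, read out with a cell viability assay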
UACC-257 = format: functional, cell-based, Homo sapiens; conditions: Homo sapiens, UACC-257
Description: SANGER: Inhibition of human UACC-257 cell growth in a cell viability assay.

OS-RC-2 = format: functional, cell-based, Homo sapiens; conditions: Homo sapiens, OS-RC-2;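 also: growth inhibition of human OS-RC-2 cells, measured by a cell viability assay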
Description: SANGER: Inhibition of human OS-RC-2 cell growth in a cell viability assay.

D-392MG = format: functional, cell-based, Homo sapiens; conditions: Homo sapiens, D-392MG
SH-4 = format: functional, cell-based, Homo sapiens; conditions: Homo sapiens, SH-4;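 also: growth inhibition of SH-4 cells, read out with a cell viability assay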
Description: SANGER: Inhibition of human SH-4 cell growth in a cell viability assay.

HH = format: functional, cell-based; conditions: Homo sapiens
Description: SANGER: Inhibition of human HH cell growth in a cell viability assay.

IST-MES1 = format: functional, cell-based, Homo sapiens; conditions: Homo sapiens, IST-MES1;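 also: growth inhibition of IST-MES1 cells, measured with a cell viability assay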
Description: SANGER: Inhibition of human IST-MES1 cell growth in a cell viability assay.

TGBC24TKB = format: functional, cell-based, Homo sapiens; conditions: Homo sapiens, TGBC24TKB;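 also: growth inhibition of human TGBC24TKB cells, read out with a cell viability assay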
Description: SANGER: Inhibition of human TGBC24TKB cell growth in a cell viability assay.

A704 = format: functional, cell-based, Homo sapiens; conditions: Homo sapiens, A704;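 also: growth inhibition of human A704 cells, read out with a cell viability assay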
Description: SANGER: Inhibition of human A704 cell growth in a cell viability assay.

KLE = format: functional, cell-based, Homo sapiens; conditions: Homo sapiens, KLE;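 also: growth inhibition of human KLE cells, read out with a cell viability assay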
Description: SANGER: Inhibition of human KLE cell growth in a cell viability assay.

Row | SMILES | IC50 (EKVX) [µM] | IC50 (ATN-1) [µM] | IC50 (NKM-1) [µM] | IC50 (LB1047-RCC) [µM] | IC50 (RKO) [µM] | IC50 (KG-1) [µM] | IC50 (ES7) [µM] | IC50 (Lu-65) [µM] | IC50 (CCRF-CEM) [µM] | IC50 (NCI-H82) [µM] | IC50 (no-11) [µM] | IC50 (EW-24) [µM] | IC50 (SW872) [µM] | IC50 (BE-13) [µM] | IC50 (LAN-6) [µM] | IC50 (NCI-H1395) [µM] | IC50 (GCIY) [µM] | IC50 (RH-1) [µM] | IC50 (UACC-257) [µM] | IC50 (OS-RC-2) [µM] | also measured
1 | CC1=C2C[C@H]3[C@@H](CC=C4C[C@@H](O)CC[C@@]43C)[C@@H]2CC[C@]12O[C@@H]1C[C@H](C)CN[C@H]1[C@H]2C [CYCLOPAMINE] | > 16 | > 16 | > 16 | > 16 | > 16 | > 16 | > 16 | > 16 | > 16 | > 16 | > 16 | > 16 | > 16 | > 16 | > 16 | > 16 | > 16 | > 16 | > 16 | 5.87 | IC50 (D-392MG): > 16 µM; IC50 (SH-4): > 16 µM; IC50 (HH): > 16 µM; IC50 (IST-MES1): > 16 µM
2 | CNC(=O)c1cc(Oc2ccc(NC(=O)Nc3ccc(Cl)c(C(F)(F)F)c3)cc2)ccn1 [SORAFENIB] | > 4 | > 4 | 0.0742 | > 4 | > 4 | 1.48 | > 4 | > 4 | > 4 | > 4 | > 4 | > 4 | > 4 | 2.7 | > 4 | > 4 | > 4 | > 4 | > 4 | > 4 | IC50 (D-392MG): > 4 µM; IC50 (SH-4): 0.656 µM; IC50 (HH): > 4 µM; IC50 (IST-MES1): > 4 µM
3 | Cc1cc(Nc2cc(N3CCN(C)CC3)nc(Sc3ccc(NC(=O)C4CC4)cc3)n2)n[nH]1 [TOZASERTIB] | > 2 | > 2 | 1.03 | > 2 | 0.308 | > 2 | > 2 | > 2 | 0.653 | > 2 | > 2 | > 2 | > 2 | 0.00338 | > 2 | > 2 | > 2 | > 2 | > 2 | > 2 | IC50 (TGBC24TKB): 0.864 µM; IC50 (A704): > 2 µM; IC50 (KLE): > 2 µM; IC50 (SH-4): > 2 µM; IC50 (HH): > 2 µM; IC50 (IST-MES1): > 2 µM
4 | CO[C@H]1C[C@@H]2CC[C@@H](C)[C@@](O)(O2)C(=O)C(=O)N2CCCC[C@H]2C(=O)O[C@H]([C@H](C)C[C@@H]2CC[C@@H](O)[C@H](OC)C2)CC(=O)[C@H](C)/C=C(\C)[C@@H](O)[C@@H](OC)C(=O)[C@H](C)C[C@H](C)/C=C/C=C/C=C/1C [SIROLIMUS] | > 0.1 | > 0.1 | > 0.1 | 0.0347 | 0.0503 | > 0.1 | > 0.1 | > 0.1 | 0.00494 | > 0.1 | 0.0832 | > 0.1 | 0.000846 | 0.00299 | > 0.1 | > 0.1 | 0.0535 | > 0.1 | > 0.1 | 0.000652 | IC50 (TGBC24TKB): 0.00551 µM; IC50 (A704): > 0.1 µM; IC50 (KLE): > 0.1 µM; IC50 (SH-4): 0.00434 µM; IC50 (HH): 0.0114 µM; IC50 (IST-MES1): > 0.1 µM
5 | O=C(/C=C/c1ccccc1)NC(NC(=S)Nc1cccc2cccnc12)C(Cl)(Cl)Cl (stereo unspecified) [SALUBRINAL] | > 16 | 12 | 10.6 | > 16 | > 16 | > 16 | > 16 | > 16 | > 16 | > 16 | > 16 | > 16 | > 16 | 8.27 | > 16 | > 16 | > 16 | > 16 | > 16 | > 16 | IC50 (D-392MG): > 16 µM; IC50 (SH-4): > 16 µM; IC50 (HH): > 16 µM; IC50 (IST-MES1): > 16 µM
6 | CS(=O)(=O)CCNCc1ccc(-c2ccc3ncnc(Nc4ccc(OCc5cccc(F)c5)c(Cl)c4)c3c2)o1 [LAPATINIB] | 0.449 | > 2 | > 2 | > 2 | > 2 | > 2 | > 2 | > 2 | > 2 | > 2 | > 2 | > 2 | > 2 | > 2 | > 2 | > 2 | > 2 | > 2 | > 2 | 1.99 | IC50 (D-392MG): > 2 µM; IC50 (SH-4): > 2 µM; IC50 (HH): > 2 µM; IC50 (IST-MES1): > 2 µM
7 | C=C1C(=O)O[C@@H]2C3O[C@]3(C)CC/C=C(\C)CC[C@@H]12 (stereo partly specified) | > 5 | > 5 | > 5 | > 5 | > 5 | > 5 | > 5 | > 5 | > 5 | > 5 | > 5 | > 5 | > 5 | > 5 | > 5 | > 5 | > 5 | > 5 | > 5 | > 5 | IC50 (D-392MG): > 5 µM; IC50 (SH-4): > 5 µM; IC50 (HH): > 5 µM; IC50 (IST-MES1): > 5 µM
8 | CCc1nc(N)nc(N)c1-c1ccc(Cl)cc1 [PYRIMETHAMINE] | > 20 | 1.78 | > 20 | > 20 | > 20 | > 20 | 14.8 | 11 | 9.39 | 9.11 | > 20 | > 20 | > 20 | 7.77 | > 20 | > 20 | > 20 | > 20 | 3.84 | 2.61 | IC50 (D-392MG): > 20 µM; IC50 (SH-4): > 20 µM; IC50 (HH): > 20 µM; IC50 (IST-MES1): > 20 µM
